According to publication PMC11672400, “Synthesis, Spectroscopic Characterization, Structural Analysis, and Evaluation of Anti-Tumor, Antimicrobial, and Antibiofilm Activities of Halogenoaminopyrazoles Derivatives” (Antibiotics, 2024):
≈ marks a conversion by molar mass, not a printed value. Where two headings read alike, the source gives them in different places.

Experiments:
[1] = MTT cell viability / cytotoxicity on normal fibroblasts; type: cell-based, mouse; settings: mouse
Text: (§1) Merck chemicals were utilized.
(§2) Untreated cells were used as control, considered 100% viable cells.

[2] = system: NCTC (clone 929) mouse fibroblast cells; experiment: as above; type: cell-based; settings: Mus musculus, NCTC clone 929; NCTC normal fibroblasts, MTT, 48 h
Text: as §1, §2

[3] = system: HEp-2 epithelial tumor cells; experiment: MTT cell viability / anti-tumor activity; settings: Homo sapiens, read-out: Cell viability on Hep2 cells (%)
Description: The cytotoxicity of the halogenoaminopyrazole derivatives 4a–f and 5a–e was tested on L929 mouse fibroblast cells, and their anti-tumor activity was evaluated on the human carcinoma epithelial cell line HEp-2. The experiments were performed in a concentration range of 3.1–50 μg/mL.
The MTT test was used, 3-(4,5-dimethylthiazol-2-yl)-2,5-diphenyl tetrazolium bromide), which is reduced to insoluble purple-blue formazan crystals precipitated by living cells. Cell viability assessed using the MTT assay reflects the activity of mitochondrial enzymes in treated cells compared to the control culture of untreated cells.
To assess the biocompatibility of the substances, a stable mouse fibroblast cell line, NCTC (clone 929), was grown in minimal essential medium (MEM) with 10% fetal bovine serum (FBS) and 2 mM L-glutamine, along with 100 U/mL penicillin, 100 µg/mL streptomycin, and 500 µg/mL neomycin. The concentration of the compounds used was 0.06 g/2 mL DMSO.
In cytotoxicity experiments, compound solutions were utilized at concentrations of 3.1 μg/mL, 6.25 μg/mL, 12.5 μg/mL, 25 μg/mL, and 50 μg/mL. The NCTC cell suspension was placed into 96-well culture plates with a concentration of 4 × 10^4 cells/mL and incubated at 37 °C for 24 h in a 5% CO2 humidified atmosphere. The compounds under study were placed in sets of three at varying concentrations ranging from 3.1 μg/mL to 50 μg/mL in every well, and the plates were then kept under standard conditions for 48 h. Cell viability was determined through the utilization of the MTT assay. Next, the MTT solution was removed, then isopropanol was added to solubilize the formazan crystals. The colored solution was then measured for absorbance at 570 nm using a Berthold Technologies, LB 940 microplate reader (Bad Wildbad, Germany). The outcomes were determined based on Formula (1) while considering that the recorded optical density is directly related to the number of viable cells in the cell culture being examined [35, 36]. % cell viability = (OD sample/OD control) × 100%(1)
For each tested compound, a graph representing percentage cell viability versus concentrations (in the range 3.1–50 µg/mL) was obtained. Then, the IC50 value was calculated by using ED50 plus V1.0 software.

[4] = system: Staphylococcus aureus ATCC25923; experiment: MIC by serial microdilution in liquid medium; type: cell-based; settings: Staphylococcus aureus, ATCC25923; 24 h, 37 °C; read-out: Minimum inhibitory concentration, Staphylococcus aureus ATCC25923
Description: (§3) The minimum inhibitory concentrations (MIC) were determined by the serial microdilution method in a liquid medium (Tryptone Soy Broth), on 96-well plates. Serial binary dilutions of the compound stock solution (10 mg/mL in DMSO) were carried out in 90 µL of culture medium and 10 µL of 10^6 CFU/mL (Colony Forming Units) microbial suspension. Each test included a positive control (wells with culture medium and microbial suspension) and a negative control for medium sterility. After incubation at 37 °C for 24 h the plates were visually examined, and optical density was measured at 620 nm. […] The MIC value (µg/mL) for the chemical compound was determined by the concentration in the final well without bacterial growth. All experiments were performed in triplicate.

[5] = system: Escherichia coli ATCC25922; experiment: MIC by serial microdilution in liquid medium; type: cell-based; settings: Escherichia coli, ATCC25922; 24 h, 37 °C; read-out: Minimum inhibitory concentration, Escherichia coli ATCC25922
Description: as §3

[6] = system: Pseudomonas aeruginosa ATCC27853; experiment: MIC by serial microdilution in liquid medium; type: cell-based; settings: Pseudomonas aeruginosa, ATCC27853; 24 h, 37 °C; read-out: Minimum inhibitory concentration, Pseudomonas aeruginosa ATCC27853
Description: as §3

[7] = system: Enterococcus faecalis ATCC29212; experiment: MIC by serial microdilution in liquid medium; type: cell-based; settings: Enterococcus faecalis, ATCC29212; 24 h, 37 °C; read-out: Minimum inhibitory concentration, Enterococcus faecalis ATCC29212
Description: as §3

[8] = system: Staphylococcus aureus ATCC25923; experiment: Antibiofilm assay (crystal violet), MBIC; type: cell-based; settings: Staphylococcus aureus, ATCC25923; 24 h, 37 °C; read-out: Minimum biofilm inhibition concentration (MBIC), Staphylococcus aureus ATCC25923
Description: (§4) Microorganisms were grown in 96-well plates filled with nutrient broth along with test substances, followed by incubation at 37 °C for 24 h. Plates were cleaned and rinsed thrice using SPW solution (sterile physiological water). After that, the attached cells were treated with 110 μL of methanol for 5 min, and then the methanol was removed by turning it upside down. […] Once stained, the solution was removed, and the plates were washed with running tap water. […] The antimicrobial/antibiofilm activity of the compounds was evaluated against two antibiotics, commercial formulations of metronidazole and nitrofurantoin.

[9] = system: Escherichia coli ATCC25922; experiment: Antibiofilm assay (crystal violet), MBIC; type: cell-based; settings: Escherichia coli, ATCC25922, 24 h, 37 °C, read-out: Minimum biofilm inhibition concentration (MBIC), Escherichia coli ATCC25922
Description: as §4

[10] = system: Pseudomonas aeruginosa ATCC27853; experiment: Antibiofilm assay (crystal violet), MBIC; type: cell-based; settings: 37 °C
Description: as §4

[11] = system: Enterococcus faecalis ATCC29212; experiment: Antibiofilm assay (crystal violet), MBIC; type: cell-based; settings: Enterococcus faecalis, ATCC29212, 24 h, 37 °C, read-out: Minimum biofilm inhibition concentration (MBIC), Enterococcus faecalis ATCC29212
Description: as §4

[12] = system: Staphylococcus aureus ATCC25923; experiment: Qualitative evaluation of antimicrobial activity (inhibition zone, spot on agar); type: cell-based; design: key: (+) inhibited bacterial growth; (-) did not inhibit bacterial growth; settings: 0.06 g/2 mL DMSO, 5 µL spot
Description: (§5) For testing the antimicrobial/antibiofilm activity, the concentration of the studied compounds was identical to 0.06 g/2 mL DMSO. 0.5 Standard McFarland suspension was used, which was inoculated onto Mueller Hinton agar plates, (Remel, Lenexa, KS, USA), 5 µL of each compound was spotted and incubated overnight at 37 °C. Antimicrobial activity was observed as zones of inhibition formed around the spot.

[13] = system: Escherichia coli ATCC25922; experiment: as above; type: cell-based; design: key: (+) inhibited bacterial growth; (-) did not inhibit bacterial growth; settings: 0.06 g/2 mL DMSO, 5 µL spot
Description: as §5

[14] = system: Pseudomonas aeruginosa ATCC27853; experiment: as above; type: cell-based; design: key: (+) inhibited bacterial growth; (-) did not inhibit bacterial growth; settings: 0.06 g/2 mL DMSO, 5 µL spot
Description: as §5

[15] = system: Enterococcus faecalis ATCC29212; experiment: as above; type: cell-based; design: key: (+) inhibited bacterial growth; (-) did not inhibit bacterial growth; settings: 0.06 g/2 mL DMSO, 5 µL spot
Description: as §5

[16] = read-out: Cell viability on NCTC cells (%)
[17] = NCTC clone 929 (L929) mouse fibroblast cells

`C[C@@H]1CC[C@@]2(OC1)O[C@H]1C[C@H]3[C@@H]4CC=C5C[C@@H](O[C@@H]6O[C@H](CO)[C@@H](O[C@@H]7O[C@@H](C)[C@H](O)[C@@H](O)[C@H]7O)[C@H](O)[C@H]6O[C@@H]6O[C@@H](C)[C@H](O)[C@@H](O)[C@H]6O)CC[C@]5(C)[C@H]4CC[C@]3(C)[C@H]1[C@@H]2C` [dioscin, reference compound] showed a viability at 24 h, 3.1 µg/mL [1, 16] of 94.3 ± 2.49%, a viability at 48 h, 3.1 µg/mL [1, 16] of 94.2 ± 1.66% and a viability at 24 h, 6.25 µg/mL [1, 16] of 93 ± 3.24%. The viability at 48 h, 6.25 µg/mL [1, 16] was 72.6 ± 1.67%, the viability at 24 h, 12.5 µg/mL [1, 16] was 38.7 ± 2.55% and the viability at 48 h, 12.5 µg/mL [1, 16] was 37 ± 2.55%. For the same compound, the viability at 24 h, 25 µg/mL [1, 16] was 14.9 ± 2.63%, the viability at 48 h, 25 µg/mL [1, 16] was 8.55 ± 1.26% and the viability at 24 h, 50 µg/mL [1, 16] was 13.7 ± 2.06%. For the same compound, the viability at 48 h, 50 µg/mL [1, 16] was 7.14 ± 1.28%, the IC50 [2] was 15.8 ± 2.19 µg/mL (≈ 18.2 µM) and the viability at 3.1 µg/mL ([3]; HEp-2, 24 h) was 97.09 ± 0.43%. It also gave a viability at 6.25 µg/mL ([3]; HEp-2, 24 h) of 76.7 ± 2.01%, a viability at 12.5 µg/mL ([3]; HEp-2, 24 h) of 58.92 ± 0.3% and a viability at 25 µg/mL ([3]; HEp-2, 24 h) of 13.9 ± 0.18%. It also gave a viability at 50 µg/mL ([3]; HEp-2, 24 h) of 11.5 ± 0.14%, a viability at 3.1 µg/mL ([3]; HEp-2, 48 h) of 95.99 ± 0.53% and a viability at 6.25 µg/mL ([3]; HEp-2, 48 h) of 62 ± 1.78%. For the same compound, the viability at 12.5 µg/mL ([3]; HEp-2, 48 h) was 38 ± 2.09%, the viability at 25 µg/mL ([3]; HEp-2, 48 h) was 7.49 ± 1.32% and the viability at 50 µg/mL ([3]; HEp-2, 48 h) was 7.27 ± 1.14%.

In the case of `Cc1nn(CNc2ccc(I)cc2)c(C)c1[N+](=O)[O-]` [4d, N-[(3,5-dimetyl-4-nitro-1H-pyrazol-1-yl)-methyl]-4-iodoaniline], the MIC [4] is reported as 930 ± 0.55 µg/mL (≈ 2500 µM), the MIC [5] is reported as 930 ± 0.1 µg/mL (≈ 2500 µM) and the MIC [6] is reported as 930 ± 0.02 µg/mL (≈ 2500 µM). The MIC [7] was 930 ± 0.53 µg/mL (≈ 2500 µM), the minimal effective concentration [8] was 930 ± 0.03 µg/mL and the minimal effective concentration [9] was 930 ± 0.18 µg/mL. For the same compound, the “Minimum biofilm inhibition concentration (MBIC), Pseudomonas aeruginosa ATCC27853” value ([10]; 24 h) was 460 ± 0.05 µg/mL, the minimal effective concentration ([10]; Pseudomonas aeruginosa, ATCC27853, 24 h, read-out: Minimum biofilm inhibition concentration (MBIC), Pseudomonas aeruginosa ATCC27853) was 460 µg/mL and the minimal effective concentration [11] was 930 ± 0.53 µg/mL. For the same compound, the viability at 24 h, 3.1 µg/mL [1, 17] was 99.9 ± 2.31%, the viability at 48 h, 3.1 µg/mL [1, 17] was 95.69 ± 0.8% and the viability at 24 h, 6.25 µg/mL [1, 17] was 101 ± 2.24%. For the same compound, the viability at 48 h, 6.25 µg/mL [1, 17] was 96.26 ± 0.78%, the viability at 24 h, 12.5 µg/mL [1, 17] was 103 ± 3.44% and the viability at 48 h, 12.5 µg/mL [1, 17] was 92.6 ± 1.4%. It also gave a viability at 24 h, 25 µg/mL [1, 17] of 102 ± 1.07%, a viability at 48 h, 25 µg/mL [1, 17] of 91.5 ± 1.41% and a viability at 24 h, 50 µg/mL [1, 17] of 101 ± 2.55%. For the same compound, the viability at 48 h, 50 µg/mL [1, 17] was 88.2 ± 2.1%, the “Qualitative antimicrobial activity, Staphylococcus aureus ATCC25923” value [12] was “-” and the “Qualitative antimicrobial activity, Escherichia coli ATCC25922” value [13] was “-”. The “Qualitative antimicrobial activity, Pseudomonas aeruginosa ATCC27853” value [14] was “-”, the “Qualitative antimicrobial activity, Enterococcus faecalis ATCC29212” value [15] was “-” and the viability at 3.1 µg/mL ([3]; HEp-2, 24 h) was 105 ± 1.93%. For the same compound, the viability at 6.25 µg/mL ([3]; HEp-2, 24 h) was 110 ± 2.64%, the viability at 12.5 µg/mL ([3]; HEp-2, 24 h) was 113 ± 3.48% and the viability at 25 µg/mL ([3]; HEp-2, 24 h) was 109 ± 2.75%. The viability at 50 µg/mL ([3]; HEp-2, 24 h) was 106 ± 1.63%, the viability at 3.1 µg/mL ([3]; HEp-2, 48 h) was 101 ± 3.72% and the viability at 6.25 µg/mL ([3]; HEp-2, 48 h) was 110 ± 3.49%. For the same compound, the viability at 12.5 µg/mL ([3]; HEp-2, 48 h) was 111 ± 2.8%, the viability at 25 µg/mL ([3]; HEp-2, 48 h) was 101.6 ± 0.56% and the viability at 50 µg/mL ([3]; HEp-2, 48 h) was 69 ± 0.81%. The melting point was 91 to 92 °C.
